Reference: the ASAP Discovery antiviral challenge data (2025)
In brackets after ≈: the same amount, converted by molar mass. Several values for one entry are separate records, joined by “and”; a condition that tells them apart may be missing. Equal values may be shown once.

Legend:
[1] = mdck_mdr1
[2] = human; liver_microsomes
[3] = not given; remark: listed apart in the source

Compound	Papp [1]	microsomal CLint [2] [µL/min/mg]	solubility kinetic	logD [3]
C=C[C@H]1CN2CC[C@H]1C[C@@H]2[C@@H](O)c1ccnc2ccc(OC)cc12	13.9 ×10⁻⁶ cm/s			
CC(C)CNC(=O)c1cc(Cl)c(F)cc1NS(=O)(=O)c1ccc(Oc2ccccc2Cl)cc1	2.39 ×10⁻⁶ cm/s	198	4 µM (≈ 2.05 µg/mL)	
CC(C)c1nc2c(C(=O)Nc3cccc(CN)c3)cccc2[nH]1	3.84 ×10⁻⁶ cm/s		316 µM (≈ 97.4 µg/mL)	1.9
CC(C)n1cc2c(C(=O)Nc3ccc4c(c3)CNC4)cc(Cl)cc2n1	3.4 ×10⁻⁶ cm/s		181 µM (≈ 64.2 µg/mL)	1.6
CCc1cc(C(=O)Nc2cccc(CN)c2)sc1-c1ccc(Cl)cc1	0.995 ×10⁻⁶ cm/s		7 µM (≈ 2.6 µg/mL)	4.3
CO[C@H]1C[C@H](n2ncc3c(C(=O)Nc4ccc5c(c4)CNC5)cc(Cl)cc32)C1	1.6 ×10⁻⁶ cm/s		340 µM (≈ 135 µg/mL)	1.5
C[C@H]1O[C@@H](O[C@H]2[C@@H](O)C[C@H](O[C@H]3[C@@H](O)C[C@H](O[C@H]4CC[C@@]5(C)[C@H](CC[C@@H]6[C@@H]5C[C@@H](O)[C@]5(C)[C@@H](C7=CC(=O)OC7)CC[C@]65O)C4)O[C@@H]3C)O[C@@H]2C)C[C@H](O)[C@@H]1O	0.6 ×10⁻⁶ cm/s			
Cc1ccc(NC(=O)c2cc(Cl)cc(NC(=O)OCc3ccccc3)c2)cc1CN	0.0873 ×10⁻⁶ cm/s			
Clc1ccc2[nH]cc(Cc3ccc(-c4nn[nH]n4)cc3)c2c1	8.4 ×10⁻⁶ cm/s			2.1
Cn1ncc2c(C(=O)Nc3ccc4c(c3)CNC4)cc(Br)cc21	4.66 ×10⁻⁶ cm/s		392 µM (≈ 146 µg/mL)	1
NCc1cc(Cl)cc(C(=O)Nc2ccc3c(c2)CNC3)c1				2
NCc1cccc(NC(=O)c2cc(Cl)cc(NC(=O)OCc3ccccc3)c2)c1	2.11 ×10⁻⁶ cm/s		89 µM (≈ 36.5 µg/mL)	2.7
NCc1cccc(NC(=O)c2cccn3cc(CN4CCCC4)nc23)c1	5.25 ×10⁻⁶ cm/s		332 µM (≈ 116 µg/mL)	0.2
O=C(NCC(F)(F)F)c1cc(Cl)c(F)cc1NS(=O)(=O)c1ccc(Oc2ccccc2Cl)cc1	2.4 ×10⁻⁶ cm/s	70	14 µM (≈ 7.52 µg/mL)	
O=C(Nc1cc(Cl)cc(-c2ccc3[nH]c(C(=O)O)cc3c2)c1)OCc1ccccc1	0.61 ×10⁻⁶ cm/s		356 µM (≈ 150 µg/mL)	3.7
O=C(Nc1cc(Cl)cc(C(=O)Nc2cccc(-c3nnn[nH]3)c2)c1)OCc1ccccc1	5.06 ×10⁻⁶ cm/s		65 µM (≈ 29.2 µg/mL)	3.7
O=C(Nc1cc(Cl)cc(C(=O)Nc2cccc(C3CCNCC3)c2)c1)OCc1ccccc1	1.8 ×10⁻⁶ cm/s		126 µM (≈ 58.5 µg/mL)	
O=C(Nc1cc(Cl)cc(C(=O)Nc2n[nH]c3c2CNC3)c1)OCc1ccccc1	1.44 ×10⁻⁶ cm/s		26 µM (≈ 10.7 µg/mL)	
O=C(Nc1ccc2c(c1)CNC2)c1cc(Cl)cc2c1CCC2	2.57 ×10⁻⁶ cm/s		335 µM (≈ 105 µg/mL)	1.8
O=C(O)COc1cccc(NC(=O)c2cc(Cl)cc(NC(=O)OCc3ccccc3)c2)c1	1.1 ×10⁻⁶ cm/s		360 µM (≈ 164 µg/mL)	1.8
O=C(O)Cn1ncc2cc(-c3cc(Cl)cc(NC(=O)OCc4ccccc4)c3)ccc21	5.12 ×10⁻⁶ cm/s		131 µM (≈ 57.1 µg/mL)	2.6

Compound	Papp [1]	microsomal CLint [2] [µL/min/mg]	solubility kinetic	logD [3]
O=C1Cc2c(cc(F)cc2C(=O)Nc2ccc3c(c2)CNC3)N1	2.9 ×10⁻⁶ cm/s		368 µM (≈ 115 µg/mL)	-0.2
O=C1Cc2c(cccc2C(=O)Nc2ccc3c(c2)CNC3)N1	0.924 ×10⁻⁶ cm/s		152 µM (≈ 44.6 µg/mL)	0.3
O=C1Cc2cc(C(=O)Nc3ccc4c(c3)CNC4)ccc2N1	0.873 ×10⁻⁶ cm/s		136 µM (≈ 39.9 µg/mL)	
c1ccc2c(CN3CCC(c4c[nH]c5cccnc45)CC3)c[nH]c2c1	4.6 ×10⁻⁶ cm/s	16		
c1ccc2sc(C3CCN(Cc4c[nH]c5ccccc45)CC3)nc2c1	5.82 ×10⁻⁶ cm/s	38.1	119 µM (≈ 41.4 µg/mL)	
C=CC[C@H](Nc1ccc(-c2nn[nH]n2)cc1)c1cc(Cl)cc(NC(=O)OCc2ccccc2)c1 (racemic)	2.6 ×10⁻⁶ cm/s	10.1		3.9
C=CC[C@H]1NCc2cc(NC(=O)c3cc(F)cc4[nH]ncc34)ccc21 (racemic)	3.86 ×10⁻⁶ cm/s		356 µM (≈ 120 µg/mL)	1.7
CC(C)NC(=O)[C@H](Nc1ccc2c(c1)CNC2)c1cc(Cl)cc2[nH]ncc12 (racemic)	0.963 ×10⁻⁶ cm/s		311 µM (≈ 119 µg/mL)	0.5
CCCCNC(=O)[C@H](Nc1ccc2c(c1)CNC2)c1cc(Cl)cc(C2CC2)c1 (racemic)	0.7 ×10⁻⁶ cm/s		379 µM (≈ 151 µg/mL)	2.3
CNC(=O)[C@H](Nc1cc(CN)cc(-c2nn[nH]n2)c1)c1cc(Cl)cc(C2CC2)c1 (racemic)	0.302 ×10⁻⁶ cm/s		352 µM (≈ 145 µg/mL)	1.5
CNC(=O)[C@H](Nc1cc(CN)cc(C(=O)O)c1)c1cc(Cl)cc(C2CC2)c1 (racemic)	0.94 ×10⁻⁶ cm/s		335 µM (≈ 130 µg/mL)	0
CNC(=O)[C@H](Nc1ccc(-c2nnn[nH]2)cc1)c1cc(Cl)cc(C2CC2)c1 (racemic)	1.6 ×10⁻⁶ cm/s			1.1
CNC(=O)[C@H](Nc1ccc2c(c1)CNC2)c1cc(Cl)cc(C2CC2)c1 (racemic)	1.5 ×10⁻⁶ cm/s		358 µM (≈ 127 µg/mL)	0.9
CNC(=O)[C@H](Nc1ccc2c(c1)CNC2)c1cc(Cl)cc2[nH]c(-c3ccccc3)nc12 (racemic)	1.02 ×10⁻⁶ cm/s		178 µM (≈ 76.9 µg/mL)	1.8
CNC(=O)[C@H](Nc1cccc(-c2nn[nH]n2)c1)c1cc(Cl)cc2[nH]ncc12 (racemic)	0.863 ×10⁻⁶ cm/s		347 µM (≈ 133 µg/mL)	0.3
COCc1cc(Cl)cc([C@H](Nc2ccc3c(c2)CNC3)C(=O)NCC(F)F)c1 (racemic)	1.7 ×10⁻⁶ cm/s		192 µM (≈ 78.7 µg/mL)	0.2
COc1cc(C#N)cc([C@H](Nc2ccc3c(c2)CNC3)C(=O)NCC(F)F)c1 (racemic)	0.5 ×10⁻⁶ cm/s		381 µM (≈ 147 µg/mL)	-0.4
COc1cc(Cl)cc([C@H](Nc2ccc3c(c2)CNC3)C(=O)NCC(F)F)c1 (racemic)	0.7 ×10⁻⁶ cm/s			0.5
Cc1c(C(=O)Nc2cc([C@H]3CCOC3)ccn2)cc(C2CC2)n1C (racemic)	27.2 ×10⁻⁶ cm/s	57.7		3
Cc1cc([C@H](Nc2ccc3c(c2)CNC3)C(=O)NCC(F)F)cc(C(F)(F)F)c1 (racemic)	0.7 ×10⁻⁶ cm/s			1
Cc1nccn1C[C@H]1CCc2c(c3ccccc3n2C)C1=O (racemic)			127 µM (≈ 37.3 µg/mL)	

Compound	Papp [1]	microsomal CLint [2] [µL/min/mg]	solubility kinetic	logD [3]
N#CCCNC(=O)[C@H](Nc1ccc2c(c1)CNC2)c1cc(Cl)cc(C2CC2)c1 (racemic)	0.5 ×10⁻⁶ cm/s		374 µM (≈ 148 µg/mL)	0.6
NCc1cc(C(=O)O)cc([C@@H]2C[C@H]2c2cc(Cl)cc(NC(=O)OCc3ccccc3)c2)c1 (racemic)	0.819 ×10⁻⁶ cm/s		52 µM (≈ 23.4 µg/mL)	2.7
NCc1cccc(NC(=O)C[C@H](NC(=O)OCc2ccccc2)c2ccc(OCc3ccccc3)cc2)c1 (racemic)	1.04 ×10⁻⁶ cm/s	17	17 µM (≈ 8.66 µg/mL)	
NCc1cccc(NC(=O)[C@H](NC(=O)OCc2ccccc2)C(C2CCC2)C2CCC2)c1 (racemic)	1.6 ×10⁻⁶ cm/s	12.6		2.5
NCc1cccc(NC(=O)[C@H](NC(=O)OCc2ccccc2)C2CCCCC2)c1 (racemic)	1.58 ×10⁻⁶ cm/s	5.29		2
O=C(NCC(F)F)[C@H](Nc1cc2c(cc1Br)CNC2)c1cc(Cl)cc(C2CC2)c1 (racemic)	0.2 ×10⁻⁶ cm/s		333 µM (≈ 161 µg/mL)	2.9
O=C(NCC(F)F)[C@H](Nc1ccc2c(c1)CNC2)c1cc(Br)cc2nc[nH]c12 (racemic)	0.5 ×10⁻⁶ cm/s			0.4
O=C(NCC(F)F)[C@H](Nc1ccc2c(c1)CNC2)c1cc(Cl)cc(C2CC2)c1 (racemic)	1.55 ×10⁻⁶ cm/s		367 µM (≈ 149 µg/mL)	1.6
O=C(NCC(F)F)[C@H](Nc1ccc2c(c1)CNC2)c1cc(Cl)cc2c1CCC2 (racemic)	0.9 ×10⁻⁶ cm/s			1.2
O=C(NCC(F)F)[C@H](Nc1ccc2c(c1)CNC2)c1cc(Cl)cc2ccoc12 (racemic)	2.1 ×10⁻⁶ cm/s		187 µM (≈ 75.9 µg/mL)	0.6
O=C(NCC(F)F)[C@H](Nc1cnc2c(c1)CNC2)c1cc(Cl)cc(C2CC2)c1 (racemic)	0.8 ×10⁻⁶ cm/s		362 µM (≈ 147 µg/mL)	1.5
O=C(NCCCF)[C@H](Nc1ccc2c(c1)CNC2)c1cc(Cl)cc(C2CC2)c1 (racemic)	0.7 ×10⁻⁶ cm/s		394 µM (≈ 158 µg/mL)	1.2
O=C(Nc1cc(Cl)cc([C@H](Nc2cccc(-c3nn[nH]n3)c2)C(=O)NCc2ccccc2)c1)OCc1ccccc1 (racemic)	0.6 ×10⁻⁶ cm/s			3.7
O=C(Nc1cc(Cl)cc([C@H]2CN(Cc3ccccc3)C[C@@H]2c2cccc(-c3nn[nH]n3)c2)c1)OCc1ccccc1 (racemic)	0.2 ×10⁻⁶ cm/s	46.3		4.1
OCC#C[C@H](Nc1ccc2c(c1)CNC2)c1cc(Cl)cc2[nH]ncc12 (racemic)	0.592 ×10⁻⁶ cm/s		135 µM (≈ 47.6 µg/mL)	0.5
CC(C)[C@H](Nc1ncnc2[nH]c(-c3cnn(C)c3C#N)cc12)c1ccc2c(n1)OCCO2 (single isomer, unassigned)	13.7 ×10⁻⁶ cm/s and 14.6 ×10⁻⁶ cm/s		53 µM and 50 µM	3.7 and 3.9
CC(C)[C@H](Nc1ncnc2[nH]c(-c3cnn(CC(=O)N(C)C)c3)cc12)c1ccc2c(c1)S(=O)(=O)CCC2 (single isomer, unassigned)	1.17 ×10⁻⁶ cm/s and 0.555 ×10⁻⁶ cm/s		361 µM and 256 µM	2.2
CC(C)[C@H](Nc1ncnc2[nH]c(C(=O)N[C@@H]3CCN(C)C3)cc12)c1ccc2c(c1)S(=O)(=O)CCC2 (single isomer, unassigned)			366 µM and 392 µM	1.4 and 1.6
CC(C)[C@H](Nc1ncnc2[nH]cc(C(=O)NC3CC3)c12)c1ccc2c(c1)S(=O)(=O)CCC2 (single isomer, unassigned)	2.97 ×10⁻⁶ cm/s and 1.27 ×10⁻⁶ cm/s			3.2 and 3
O=C(NCC(F)F)[C@H](Nc1ccc2c(c1)CNC2)c1cc(Cl)cc(C2CC2)c1 (single isomer, unassigned)	1.3 ×10⁻⁶ cm/s and 1.9 ×10⁻⁶ cm/s		326 µM and 139 µM	1.3 and 1.4
